Results reported in article PMC3723356 (Journal of natural products, 2013).

Target: human δ-opioid receptor (Homo sapiens, UniProt P41143)
Assay: [35S]-GTPγS functional assay
Format: biochemical
Conditions: from [35S]-GTPγS assay

Sequence of human δ-opioid receptor (P41143 whole entry): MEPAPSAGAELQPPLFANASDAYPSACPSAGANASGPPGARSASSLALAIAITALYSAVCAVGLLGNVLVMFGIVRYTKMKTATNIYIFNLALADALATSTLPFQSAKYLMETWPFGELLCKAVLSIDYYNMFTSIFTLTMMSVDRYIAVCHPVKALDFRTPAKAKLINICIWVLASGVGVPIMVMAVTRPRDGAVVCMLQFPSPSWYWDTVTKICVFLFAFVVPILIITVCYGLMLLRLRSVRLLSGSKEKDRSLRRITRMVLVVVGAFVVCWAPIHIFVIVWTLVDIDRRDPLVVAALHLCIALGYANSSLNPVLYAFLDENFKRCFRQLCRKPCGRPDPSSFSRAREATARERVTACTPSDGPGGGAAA

COc1cc(O)c2c(c1)CC(=O)CCCC(=O)CCC[C@@H](C)OC2=O [Compound 4, neocosmosin C]
classification of functional activity at the human δ-opioid receptor: full agonist
